Experiments:
diabetic KKAy-mice = experiment: In vivo study of plasma concentrations of insulin, glucose and triglycerides in KKAy-mice after isosteviol or soybean protein (Example 1); conditions: oral in diet
Description: The following experiment was performed to investigate the effect of isosteviol (ISV) and soybean protein on plasma concentrations of insulin, glucose and triglycerides. Four experimental groups, each consisting of 10 KKAy-mice (obtained from Clea Japan, Tokyo, Japan) and one control group of 20 C57 mice (obtained from Taconic, Ry, Denmark), all 5 weeks old, were feed the following three test diets in a period of nine weeks. • A: standard chow diet (SCD)(ALTROMIN 1320, Brogaarden, Hørsholm). Diet A was fed to one experimental group and to the control group. • B: standard chow diet (SCD) (ALTROMIN 1320, Brogaarden, Hørsholm)+0.02 g/kg BW of ISV (Waco Chemicals, Osaka, Japan). • C: diet containing 50 weight-% standard chow+50 weight-% Soybean Protein (SBP) (NutriPharma, Oslo)
Hormones and lipids were measured from blood sample at start and end of the treatment period. Fasting blood glucose as well as body weight were measured once a week. […] The blood was taken from the tail of the animals.
Isosteviol (ISV) and Soybean Protein (SBP) were given orally. The SBP were incorporated in the food pellet and the ISV was dissolved in absolute ethanol, the solution was inoculated on the pellets and the ethanol was allowed to evaporate, leaving the ISV on the food pellet. All diets were adjusted for vitamins and minerals, so that all diets content the same amount. Beside that, water was given ad libitum and a light cycle of 12 hours/12 hours was used. The experiment was performed in accordance with the guidelines of the Danish Council on Animal Care.

IR = experiment: Affymetrix gene chip analysis of KKAy islets: IR; assay type: in vivo, mice; conditions: ISV vs. KKAy control islets, 9 weeks
Description: (§1) cRNA preparation and in vitro transcription: In total 6 Affymetrix arrays MOE430 2.0 probe array cartridge were used i.e. for analysis of 3 replicas for the KKAy control group and the ISV group, respectively. Each of the 6 samples consisted of pooled RNA from 3-4 KKAy mice. Preparation of target for hybridization was prepared from 340 ng of total RNA using MessageAmp™ II aRNA Amplification Kits (Ambion), according to the manufacturers instructions. Arrays were hybridised and scanned as described elsewhere (Kruhoffer et al., 2005).

Nkx6-1 = experiment: Affymetrix gene chip analysis of KKAy islets: Nkx6-1; assay type: in vivo, mice; conditions: ISV vs. KKAy control islets, 9 weeks
Description: as §1

IGF-1 = experiment: Gene expression in islets from diabetic KKAy-mice, real time RT-PCR (Example 2): IGF-1; assay type: in vivo; conditions: islets of KKAy-mice after nine weeks treatment, normalized to 18S rRNA
Description: (§2) A the end of the nine week period of the in vivo study in example 1 RNA was purified from Islets, muscle, liver and fat from the three experimental groups, using standard techniques as described in Kiergen, RNA easy.
(§3) Gene expression of PDX-1, IRS1, Beta2, 11beta-HSD-1, Akt1, C/EBP-alpha, CPT1, GLUT2, IGF1, IR and Ins1 was measured with Real time RT-PCR using Taq Man Assays normalized to 18S rRNA, using the standard protocol (ABI, USA). All reagents were obtained from (ABI, USA). All probes are standard probes obtainable from ABI, USA, under the specific probe code number, given in respect of each gene.

Beta2/neuroD = experiment: Relative real time RT-PCR in islets of KKAy mice (Example 3): Beta2/neuroD; assay type: in vivo; conditions: 9 weeks, normalized to 18S rRNA
Description: Islets were isolated by the collagenase digestion technique. In brief, the animals were anesthetized with pentobarbital (50 mg/kg intraperitoneally) and midline laparotomy was performed. The pancreas was retrogradely filled with 3 mL ice-cold Hanks balanced salt solution (([HBSS] Sigma Chemical, St Louis, Mo.) supplemented with 0.3 mg/ml collagenase Boehringer Mannheim GmbH, Germany). The pancreas was subsequently removed and incubated for 19 minutes at 37° C. After rinsing in HBSS, the islets were handpicked under a stereomicroscope and immediately transferred to a tubes containing 1 ml Trizol (Gibco/Invitrogene, Calsbad, Calif., USA). The islets isolated from the NMRI mice were incubated overnight at 37° C. and 95% normal atmosphere/5% CO2 in 10 ml RPMI 1640 containing 11.1 mmol/L glucose supplemented with penicillin G and 100 μg/mL streptomycin (all Gibco/Invitrogene, Calsbad, Calif., USA).
For each group, islets from 3-4 mice (180-200 islets) were pooled in 1 ml Trizol reagent (Gibco/lnvitrogene, Calsbad, Calif., USA) before RNA purification. Total RNA was extracted according to the manufactures' instructions. RNA was quantified by measuring absorbance at 260 and 280 nm. The quality of the RNA was checked by the Agilent 2100 bioanalyzer (Agilent, Santa Clara, USA). […]

11beta-HSD1 = experiment: Gene expression in islets from diabetic KKAy-mice, real time RT-PCR (Example 2): 11beta-HSD1; assay type: in vivo; conditions: islets of KKAy-mice after nine weeks treatment, normalized to 18S rRNA
Description: as §2, §3

[1] = after 9 weeks of treatment, compared to standard chow diet, ISV 0.02 g/kg BW, SBP 50 weight-% of diet

C[C@@]12CC[C@@H]3[C@@](CC[C@H]4[C@@]3(C)CCC[C@@]4(C)C(=O)O)(CC1=O)C2 (single isomer, unassigned; ent-16) [ISV, ent-16-ketobeyeran-19-oic acid]
reduction of plasma glucose concentration, SCD vs. treatment (diabetic KKAy-mice; [1]): 73% | reduction of plasma insulin concentration, SCD vs. treatment (diabetic KKAy-mice; [1]): 192% | plasma triglyceride concentration, SCD vs. treatment (diabetic KKAy-mice; nine weeks treatment): 101% | array: change of IR expression (IR): no changes | array: increased expression in Nkx6-1 (Nkx6-1): 2.64 fold | decreased expression of IGF1 compared to standard diet (IGF-1): 46% | increased expression of Beta2/neuroD, ISV group vs. control group (Beta2/neuroD): 60% | decreased expression of 11beta-HSD1 compared to standard diet (11beta-HSD1): 61%

— patent US20100093861A1, “TREATMENT OF INSULIN RESISTANCE OR DISEASES ASSOCIATED WITH INSULIN RESISTANCE” (Stevia ApS, priority 2006, published 2010)
